Data set [1] can be described thus: Stock solution stability at approximately 4° C. (old vs new stock peak areas). The data set is classed as physicochemical. As to conditions: for Stock solution stability, RE % (to New) of old stock peak area: approximately 4° C. The protocol: (§1) The following LC-MS/MS conditions were applied for the analysis of underivatized sodium 2,2-dimethylbutyrate and DMV for stock solution stability analysis (2 to 3.5 month), and system suitability associated with these analyses: The following samples were also analyzed either in conjunction with one of the precision and accuracy runs or in one of the additional validation runs. Samples from six lots of control human plasma for specificity. Samples from six lots of control human plasma fortified with internal standard for specificity. Two concentration levels of unextracted QC-samples in triplicate (solvent standards) were analyzed for the evaluation of the recovery of sodium 2,2-dimethylbutyrate and DMV in human plasma. Two levels of QC samples (Low QC and High QC in triplicate) were subjected to three freeze/thaw cycles at approximately −70° C. prior to extraction to evaluate freeze/thaw stability. Two levels of QC samples (Low QC and High QC in triplicate) were placed on the bench top for approximately 17 hours prior to extraction for the evaluation of the bench top stability. Triplicate low QC samples and triplicate high QC samples were stored for one month and three months in a freezer at approximately −70° C., and then extracted and analyzed to evaluate long term stability in human plasma. Two levels of extracted QC samples (Low QC and High QC) were re-analyzed after approximately 71 hours in the autosampler at room temperature to evaluate the extract autosampler stability. Two levels of extracted QC samples (Low QC and High QC) were re-analyzed after approximately 8 hours in the freezer at approximately −20° C. to evaluate the extract freeze stability. Three aliquots of a dilution QC sample diluted 10-fold. Triplicate dilutions of the old stock solution (stored at approximately 4° C.) and new stock solutions prepared at intervals of two weeks and one month. Statistical calculations in the report tables were calculated from unrounded concentration values taken directly from the raw data. The concentration values were rounded for display purposes. Fresh stock solutions of sodium 2,2-dimethylbutyrate were prepared at intervals of two weeks and 1, 2, 3 and 3.5 months after the initial standard preparation. Similarly, the stability intervals for DMV were two weeks and 1, 2 and 3 months. The initial (or old) stock solutions and the fresh stock solutions were diluted into the calibration standard range and analyzed. The peak areas for the fresh (new) and old standard solutions were compared. Beginning with the 2-month stability analysis, sodium 2,2-dimethylbutyrate and DMV stock solutions were analyzed underivatized. This was done since the peak areas of both sodium 2,2-dimethylbutyrate and DMV varied among replicate derivatized preparations. Analyzing the standard solutions underivatized was a simpler procedure which gave more accurate and precise results

Data set [2] is classed as physicochemical, human. As to conditions: for Long-term freezer stability, Mean concentration / Long-term freezer stability, RE % (mean vs nominal): human. The protocol:
as §1, with “The” for “The following LC-MS/MS conditions were applied for the analysis of underivatized sodium 2,2-dimethylbutyrate and DMV for stock solution stability analysis (2 to 3.5 month), and system suitability associated with these analyses: The”, “purposes.” for “purposes. Fresh stock solutions of sodium 2,2-dimethylbutyrate were prepared at intervals of two weeks and 1, 2, 3 and 3.5 months after the initial standard preparation. Similarly, the stability intervals for DMV were two weeks and 1, 2 and 3 months. The initial (or old) stock solutions and the fresh stock solutions were diluted into the calibration standard range and analyzed. The peak areas for the fresh (new) and old standard solutions were compared. Beginning with the 2-month stability analysis, sodium 2,2-dimethylbutyrate and DMV stock solutions were analyzed underivatized. This was done since the peak areas of both sodium 2,2-dimethylbutyrate and DMV varied among replicate derivatized preparations. Analyzing the standard solutions underivatized was a simpler procedure which gave more accurate and precise results”
QC-Low and QC-High plasma samples, which had been stored in a freezer at approximately −70° C. for one month and three months, were extracted in triplicate and analyzed. The CV % values for the QC-Low and QC-High stability samples range from 4.0% to 11.1%. To calculate the RE %, the measured mean concentration was compared to the nominal concentration. The RE % values for the QC-Low and QC-High stability samples range from −13.7% to 4.1%. All CV % values and RE % values are within the acceptance criteria (≦15% and ±15% respectively).

We go through one compound from US20110033946A1, “DETECTION OF SHORT-CHAIN FATTY ACIDS IN BIOLOGICAL SAMPLES” (HEMAQUEST PHARMACEUTICALS, INC., priority 2009, published 2011).

Like-named read-outs stand apart in the source and are kept apart here.

In the case of `CCC(C)(C)C(=O)[O-].[Na+]` [Sodium 2,2-Dimethylbutyrate], the “Stock solution stability, RE % (to New) of old stock peak area” value in data set [1] (1 Month Interval) was 10.3%; in data set [1] (2 Month Interval, underivatized) it was 2.2%; in data set [1] (2 Week Interval), −8.6%; in data set [1] (3 Month Interval, underivatized), 1.6%; in data set [1] (~3.5 Month Interval, underivatized), −2.2%. Further, in data set [1] (stock solution in acetonitrile/water stored in a refrigerator at approximately 4° C.), the “Time stock solutions are stable” value is “at least 3.5 months”. Besides, in data set [2] (human plasma, approximately −70° C.), the “Time stable in freezer” value is on record as “up to three months”. Further, the “Long-term freezer stability, Mean concentration” value in data set [2] (1 month, 0.6 μg/mL) stood at 0.552 µg/mL; in data set [2] (1 month, 40 μg/mL), 38.2 µg/mL; in data set [2] (3 months, 0.6 μg/mL), 0.624 µg/mL; in data set [2] (3 months, 40 μg/mL) it was 34.5 µg/mL. Further, the “Long-term freezer stability, RE % (mean vs nominal)” value was −7.9% in data set [2] (1 month, 0.6 μg/mL); −4.6% in data set [2] (1 month, 40 μg/mL); 4.1% in data set [2] (3 months, 0.6 μg/mL); −13.7% in data set [2] (3 months, 40 μg/mL).
